Data from patent US5378723A (priority 1994, dated 1995).
“Also recorded” adds a separate entry of the source. Like-named read-outs stand apart in the source and are kept apart here.

What was measured:
cholinesterase (ChE) [1] = details: cited from earlier work
cholinesterase (ChE) [2] = type: biochemical
AChE = type: in vivo, rat; details: for inhibiting properties and persistence: dialkylcarbamate vs mono-substituted carbamate
neuromuscular AChR = details: natural isomer; cited from earlier work
human plasma BChE = target: T1, human plasma BChE (Homo sapiens, UniProt P06276); assay: biochemical
T1 construct: the plasma was separated and diluted; from tissue; host or cells: human plasma from freshly collected blood, diluted 1:125
T1 sequence (P06276 29-602): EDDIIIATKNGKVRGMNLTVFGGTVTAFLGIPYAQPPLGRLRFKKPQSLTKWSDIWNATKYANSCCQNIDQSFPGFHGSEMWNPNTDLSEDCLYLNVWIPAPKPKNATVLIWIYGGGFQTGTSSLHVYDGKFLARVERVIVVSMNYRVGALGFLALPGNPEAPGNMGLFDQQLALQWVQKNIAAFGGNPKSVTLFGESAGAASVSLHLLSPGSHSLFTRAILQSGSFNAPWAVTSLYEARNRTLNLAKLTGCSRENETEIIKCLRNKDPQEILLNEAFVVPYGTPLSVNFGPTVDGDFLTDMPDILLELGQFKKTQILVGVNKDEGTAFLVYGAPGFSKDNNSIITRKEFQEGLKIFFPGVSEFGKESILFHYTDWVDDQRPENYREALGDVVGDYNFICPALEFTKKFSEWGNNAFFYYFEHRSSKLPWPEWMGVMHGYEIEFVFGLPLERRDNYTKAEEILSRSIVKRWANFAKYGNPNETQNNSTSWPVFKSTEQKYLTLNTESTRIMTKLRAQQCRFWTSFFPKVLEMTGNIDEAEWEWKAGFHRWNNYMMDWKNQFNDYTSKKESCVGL

human erythrocyte AChE = target: T2, human erythrocyte AChE (Homo sapiens, UniProt P22303); assay: biochemical
T2 construct: Erythrocytes were washed three times in isotonic saline, lysed; from tissue; host or cells: human erythrocytes from freshly collected blood, washed, lysed in 0.5% Triton-X
T2 sequence (P22303-2 with tags, fused parts or gaps limits assumed): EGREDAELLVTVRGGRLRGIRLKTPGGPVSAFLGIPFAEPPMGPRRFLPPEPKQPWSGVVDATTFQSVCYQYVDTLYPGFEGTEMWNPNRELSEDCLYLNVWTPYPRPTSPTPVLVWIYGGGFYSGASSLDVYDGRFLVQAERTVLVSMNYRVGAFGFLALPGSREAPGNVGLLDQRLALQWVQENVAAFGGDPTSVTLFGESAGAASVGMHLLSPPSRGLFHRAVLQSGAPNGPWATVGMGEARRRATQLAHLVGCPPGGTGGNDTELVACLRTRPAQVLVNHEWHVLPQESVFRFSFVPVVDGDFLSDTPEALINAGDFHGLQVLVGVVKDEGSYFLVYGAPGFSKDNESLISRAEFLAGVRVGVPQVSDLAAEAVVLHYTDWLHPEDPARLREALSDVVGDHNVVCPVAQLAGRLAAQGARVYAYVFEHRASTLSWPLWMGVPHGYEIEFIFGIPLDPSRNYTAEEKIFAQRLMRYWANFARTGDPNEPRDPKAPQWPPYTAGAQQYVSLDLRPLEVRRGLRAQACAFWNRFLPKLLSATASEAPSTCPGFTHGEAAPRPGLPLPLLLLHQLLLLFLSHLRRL

[3] = AChE vs BChE, in vitro, biological standards
[4] = AChE vs BChE, in vitro, used as biological standards in this art area

SMILES: CNC(=O)Oc1ccc2c(c1)[C@@]1(C)CCN(C)[C@H]1N2C [(+)-physostigmine]
- inhibition of cholinesterase (ChE) (cholinesterase (ChE) [1]): only negligible inhibition; also recorded: only negligible ChE inhibitory activity

SMILES: CNC(=O)Oc1ccc2c(c1)[C@]1(C)CCN[C@@H]1N2C [(-)-N(1)-Norphysostigmine]
- inhibition of AChE and BChE in vitro, comparison (cholinesterase (ChE) [2]; [3]): similarly at similar concentrations
- inhibition of AChE and BChE in vitro, comparison (cholinesterase (ChE) [1]; [4]): similarly at similar concentrations

SMILES: CNC(=O)Oc1ccc2c(c1)[C@]1(C)CCN(C)[C@@H]1N2C [(-)-physostigmine]
- duration of action of AChE inhibition (AChE; rat, in vivo, iv): duration of action is short
- in vivo inhibition of AChE (AChE; rat, in vivo, iv): good inhibition properties
- inhibition of AChE and BChE in vitro, comparison (cholinesterase (ChE) [2]): similarly at similar concentrations
- inhibition of AChE and BChE in vitro, comparison (cholinesterase (ChE) [1]): similarly at similar concentrations
- inhibition of cholinesterases in vitro and in vivo (cholinesterase (ChE) [1]): potent inhibitors of cholinesterases in vitro and in vivo
- properties at the neuromuscular AChR (neuromuscular AChR): blocking properties as well as agonist properties

SMILES: CNC(=O)Oc1ccc2c(c1)[C@]1(C)CCO[C@@H]1N2C [(-)-physovenine]
- IC50 (human plasma BChE): 2.7 ± 1.4 nM
- inhibition of AChE and BChE in vitro, comparison (cholinesterase (ChE) [2]; [3]): similarly at similar concentrations
- inhibition of AChE and BChE in vitro, comparison (cholinesterase (ChE) [1]; [4]): similarly at similar concentrations
- inhibition of cholinesterases in vitro and in vivo (cholinesterase (ChE) [1]; prior art): potent inhibitors of cholinesterases in vitro and in vivo

SMILES: CNC(=O)Oc1ccc2c(c1)[C@]1(C)CCS[C@@H]1N2C [(-)-thiaphysovenine]
- inhibiting properties and persistence (AChE): good inhibition properties but does not persist
- duration of action / persistence of AChE inhibition (AChE; rat plasma, i.v., 5 mg/kg, 480 minute period, FIG. 2): short duration of action
- duration of action of AChE inhibition (AChE; rat plasma, i.v., FIG. 1): duration of action is short
- in vivo inhibition of AChE (AChE; rat plasma, i.v., FIG. 1): good inhibition properties

SMILES: CCCCNC(=O)Oc1ccc2c(c1)[C@]1(C)CCS[C@@H]1N2C [Ex. 1, (-)-3,3a, 8,8a-tetrahydro-3a, 8-dimethyl-2H-thieno-[2,3-b]indole-5-ol butyl carbamate]
- IC50 (human erythrocyte AChE): 13.5 ± 1.5 nM
- IC50 (human plasma BChE): 0.7 ± 0.1 nM

SMILES: CCCCCCCNC(=O)Oc1ccc2c(c1)[C@]1(C)CCS[C@@H]1N2C [Ex. 2, (-)-3,3a,8,8a-tetrahydro-3a,8-dimethyl-2H-thieno[2,3-b]indole-5-ol heptylcarbamate]
- IC50 (human erythrocyte AChE): 25.7 ± 2.8 nM
- IC50 (human plasma BChE): 6.8 ± 1.3 nM

SMILES: CN1c2ccc(OC(=O)Nc3ccccc3)cc2[C@]2(C)CCS[C@H]12 [Ex. 3, (-)-3,3a,8,8a-tetrahydro-3a,8-dimethyl-2H-thieno[2,3-b]indole-5-ol phenylcarbamate]
- IC50 (human erythrocyte AChE): 27.2 ± 7.1 nM
- IC50 (human plasma BChE): 1660 ± 354 nM

SMILES: Cc1ccccc1NC(=O)Oc1ccc2c(c1)[C@]1(C)CCS[C@@H]1N2C [Ex. 4, (-)-3,3a,8,8a-tetrahydro-3a,8-dimethyl;-2H-thieno[2,3-b]indole-5-ol 2'-methylphenylcarbamate]
- IC50 (human erythrocyte AChE): 29 ± 5.6 nM
- IC50 (human plasma BChE): 5280 ± 354 nM

SMILES: CCc1ccccc1NC(=O)Oc1ccc2c(c1)[C@]1(C)CCS[C@@H]1N2C [Ex. 5, (-)-3,3a,8,8a-tetrahydro-3a,8-dimethyl-2H-thieno[2,3-b]indole-5-ol 2'-ethylphenylcarbamate]
- IC50 (human erythrocyte AChE): 30.1 ± 0.2 nM
- IC50 (human plasma BChE): 3430 ± 259 nM

SMILES: CC(C)c1ccccc1NC(=O)Oc1ccc2c(c1)[C@]1(C)CCS[C@@H]1N2C [Ex. 6, (-)-3,3a,8,8a-tetrahydro-3a,8-dimethy-2H-thieno[2,3-b]indole-5-ol 2'-isopropylphenylcarbamate]
- IC50 (human erythrocyte AChE): 25.5 ± 3.3 nM
- IC50 (human plasma BChE): 963 ± 106 nM

SMILES: CC(C)c1ccc(NC(=O)Oc2ccc3c(c2)[C@]2(C)CCS[C@@H]2N3C)cc1 [Ex. 7, (-)-3,3a,8,8a-tetrahydro-3a,8-dimethyl-2H-thieno[2,3-b]indole-5-ol 4'-isopropylphenylcarbamate]
- IC50 (human erythrocyte AChE): > 10000 nM
- IC50 (human plasma BChE): 45.3 ± 12.4 nM

SMILES: Cc1ccc(NC(=O)Oc2ccc3c(c2)[C@]2(C)CCS[C@@H]2N3C)c(C)c1 [Ex. 8, (-) -3,3a,8,8a-tetrahydro-3a,8-dimethyl-2H-thieno[2,3-b]indole-5-ol 2',4'-dimethylphenylcarbamate]
- IC50 (human erythrocyte AChE): 26.3 ± 3.8 nM
- IC50 (human plasma BChE): 1870 ± 291 nM

SMILES: CN(C)C(=O)Oc1ccc2c(c1)[C@]1(C)CCS[C@@H]1N2C [Ex. 9, (-)-3,3a,8,8a-tetrahydro-3a,8-dimethyl-2H-thieno[2,3-b]indole-5-ol N,N-dimethylcarbamate]
- IC50 (human erythrocyte AChE): 197 ± 34.1 nM
- IC50 (human plasma BChE): 22.5 ± 0.1 nM
- inhibiting properties and persistence (AChE): longlasting inhibiting properties
